{"source": "patent US20240158370A1", "about": "“CK1 alpha AND DUAL CK1 alpha / GSPT1 DEGRADING COMPOUNDS” (Innovo Therapeutics, Inc., priority 2022, published 2024)", "key": {"[1]": {"target": "T1, CK1α (Homo sapiens, UniProt P48729+Q96SW2)", "T1 construct": "CSNK1A1-HiBit KI HEK293(LgBit) Cells; host or cells: HEK293(LgBit) knock-in cells", "T1 sequence (P48729 whole entry)": "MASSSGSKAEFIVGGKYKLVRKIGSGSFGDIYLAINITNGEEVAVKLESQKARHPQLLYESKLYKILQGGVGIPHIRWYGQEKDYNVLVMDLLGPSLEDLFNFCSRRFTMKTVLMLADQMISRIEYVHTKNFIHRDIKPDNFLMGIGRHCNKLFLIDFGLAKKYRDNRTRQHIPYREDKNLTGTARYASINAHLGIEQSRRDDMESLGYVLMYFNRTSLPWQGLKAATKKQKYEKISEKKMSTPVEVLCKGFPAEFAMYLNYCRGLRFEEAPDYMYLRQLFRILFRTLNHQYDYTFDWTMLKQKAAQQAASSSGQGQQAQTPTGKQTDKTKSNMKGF", "T1 sequence (Q96SW2 whole entry)": "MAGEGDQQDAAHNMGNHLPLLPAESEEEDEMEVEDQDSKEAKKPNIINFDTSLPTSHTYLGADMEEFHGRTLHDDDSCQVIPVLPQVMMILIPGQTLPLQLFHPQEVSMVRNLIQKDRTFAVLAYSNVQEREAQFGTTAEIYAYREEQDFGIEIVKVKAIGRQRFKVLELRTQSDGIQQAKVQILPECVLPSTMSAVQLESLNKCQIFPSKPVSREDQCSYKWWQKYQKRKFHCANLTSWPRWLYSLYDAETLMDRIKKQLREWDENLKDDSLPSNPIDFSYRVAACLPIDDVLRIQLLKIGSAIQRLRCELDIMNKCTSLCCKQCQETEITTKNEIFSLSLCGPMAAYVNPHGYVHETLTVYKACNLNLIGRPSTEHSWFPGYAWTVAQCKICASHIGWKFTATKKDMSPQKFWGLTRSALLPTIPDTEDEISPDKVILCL", "T1 sequence (Q16531 whole entry partner)": "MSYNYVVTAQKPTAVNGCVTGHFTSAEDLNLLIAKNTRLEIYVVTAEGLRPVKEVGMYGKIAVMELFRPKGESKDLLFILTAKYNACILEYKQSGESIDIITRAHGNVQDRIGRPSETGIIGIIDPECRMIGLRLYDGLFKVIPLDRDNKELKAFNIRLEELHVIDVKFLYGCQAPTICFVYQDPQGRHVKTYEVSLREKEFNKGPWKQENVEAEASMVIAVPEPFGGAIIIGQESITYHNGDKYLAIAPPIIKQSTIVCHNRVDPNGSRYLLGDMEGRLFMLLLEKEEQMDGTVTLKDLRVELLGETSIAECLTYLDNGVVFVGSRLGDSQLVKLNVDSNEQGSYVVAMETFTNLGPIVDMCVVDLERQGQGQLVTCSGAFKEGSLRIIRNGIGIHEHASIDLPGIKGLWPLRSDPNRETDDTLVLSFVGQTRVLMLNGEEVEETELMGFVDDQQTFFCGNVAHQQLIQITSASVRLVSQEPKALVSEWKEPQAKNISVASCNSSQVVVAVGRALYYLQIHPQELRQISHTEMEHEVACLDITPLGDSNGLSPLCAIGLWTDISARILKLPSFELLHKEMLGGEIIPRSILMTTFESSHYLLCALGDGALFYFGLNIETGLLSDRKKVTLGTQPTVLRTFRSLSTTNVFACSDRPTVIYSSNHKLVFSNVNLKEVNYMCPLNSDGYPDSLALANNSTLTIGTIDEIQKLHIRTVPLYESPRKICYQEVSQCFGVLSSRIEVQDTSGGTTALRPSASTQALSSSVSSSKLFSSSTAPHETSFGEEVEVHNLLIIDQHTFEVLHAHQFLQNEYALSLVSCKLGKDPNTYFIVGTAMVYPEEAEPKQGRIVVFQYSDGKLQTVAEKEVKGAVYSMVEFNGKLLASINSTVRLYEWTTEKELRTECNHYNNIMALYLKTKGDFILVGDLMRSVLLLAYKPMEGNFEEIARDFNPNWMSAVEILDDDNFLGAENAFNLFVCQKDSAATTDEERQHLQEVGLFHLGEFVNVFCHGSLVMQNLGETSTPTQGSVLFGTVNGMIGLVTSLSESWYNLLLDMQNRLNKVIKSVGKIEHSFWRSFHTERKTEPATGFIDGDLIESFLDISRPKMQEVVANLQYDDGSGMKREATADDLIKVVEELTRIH", "assay": "HiBiT degradation assay, CK1α, Procedure A", "type": "cell-based", "conditions": "six hours", "method_in_brief": "(§1)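 Cells in DMEM+10% FBS at 1×10^6 cells/ml were added to pre-spotted compound (10-point dose response, 10 μM to 0.005 μM, 0.1% DMSO) and incubated 6 h at 37° C. Nano-Glo HiBiT lytic reagent was added and luminescence read. DC50 and Ymin came from 4-parameter curve fits.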"}, "[2]": {"target": "GSPT1 (Homo sapiens, UniProt P15170+Q96SW2)", "sequence (P15170 whole entry)": "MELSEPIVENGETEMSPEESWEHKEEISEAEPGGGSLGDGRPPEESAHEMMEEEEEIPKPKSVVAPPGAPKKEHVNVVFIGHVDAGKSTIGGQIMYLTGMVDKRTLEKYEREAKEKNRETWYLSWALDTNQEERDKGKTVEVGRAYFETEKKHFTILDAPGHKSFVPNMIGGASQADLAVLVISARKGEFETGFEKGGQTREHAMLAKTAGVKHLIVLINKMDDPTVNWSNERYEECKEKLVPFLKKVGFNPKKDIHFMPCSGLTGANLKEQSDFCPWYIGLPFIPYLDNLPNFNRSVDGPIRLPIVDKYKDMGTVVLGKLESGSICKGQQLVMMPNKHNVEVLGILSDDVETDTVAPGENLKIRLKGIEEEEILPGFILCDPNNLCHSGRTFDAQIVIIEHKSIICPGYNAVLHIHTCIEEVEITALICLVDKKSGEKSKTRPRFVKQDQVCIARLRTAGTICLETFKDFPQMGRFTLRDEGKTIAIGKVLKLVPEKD", "sequence (Q96SW2 whole entry)": "as the sequence (Q96SW2 whole entry) above", "sequence (Q16531 whole entry partner)": "as the sequence (Q16531 whole entry partner) above", "assay": "HiBiT degradation assay, GSPT1, Procedure A", "type": "cell-based", "set-up": "HiBit-GSPT1 KI HEK293(LgBit) Cells; host or cells: HEK293(LgBit) knock-in cells", "conditions": "six hours", "method_in_brief": "as §1"}}, "data": [{"smiles": "Cc1cc(-c2nc(-c3ccc4c(c3)CN(C3CCC(=O)NC3=O)C4=O)cn2C)ccc1N", "note": "(stereo not shown) [Example 558]", "values": [{"measurement": "CK1α Ymin", "setting": "[1]", "value": "C (C = 0-10% remaining)"}, {"measurement": "DC50", "setting": "[1]", "value": "< 0.025", "unit": "µM"}, {"measurement": "DC50", "setting": "[2]", "value": "≥ 0.025", "unit": "µM"}, {"measurement": "GSPT1 Ymin", "setting": "[2]", "value": "F (F = >75-100% remaining)"}]}, {"smiles": "Cn1cc(-c2ccc3c(c2)CN(C2CCC(=O)NC2=O)C3=O)nc1-c1ccoc1", "note": "(stereo not shown) [Example 559]", "values": [{"measurement": "CK1α Ymin", "setting": "[1]", "value": "C (C = 0-10% remaining)"}, {"measurement": "DC50", "setting": "[1]", "value": "< 0.025", "unit": "µM"}, {"measurement": "DC50", "setting": "[2]", "value": "< 0.025", "unit": "µM"}, {"measurement": "GSPT1 Ymin", "setting": "[2]", "value": "F (F = >75-100% remaining)"}]}, {"smiles": "Cc1cc(F)ccc1-c1nc(-c2ccc3c(c2)CN(C2CCC(=O)NC2=O)C3=O)cn1C", "note": "(stereo not shown) [Example 560]", "values": [{"measurement": "CK1α Ymin", "setting": "[1]", "value": "C (C = 0-10% remaining)"}, {"measurement": "DC50", "setting": "[1]", "value": "< 0.025", "unit": "µM"}, {"measurement": "DC50", "setting": "[2]", "value": "< 0.025", "unit": "µM"}, {"measurement": "GSPT1 Ymin", "setting": "[2]", "value": "F (F = >75-100% remaining)"}]}, {"smiles": "Cc1ccc(F)c(-c2nc(-c3ccc4c(c3)CN(C3CCC(=O)NC3=O)C4=O)cn2C)c1", "note": "(stereo not shown) [Example 561]", "values": [{"measurement": "CK1α Ymin", "setting": "[1]", "value": "C (C = 0-10% remaining)"}, {"measurement": "DC50", "setting": "[1]", "value": "< 0.025", "unit": "µM"}, {"measurement": "DC50", "setting": "[2]", "value": "< 0.025", "unit": "µM"}, {"measurement": "GSPT1 Ymin", "setting": "[2]", "value": "F (F = >75-100% remaining)"}]}, {"smiles": "Cc1cc(Cl)ccc1-c1nc(-c2ccc3c(c2)CN(C2CCC(=O)NC2=O)C3=O)cn1C", "note": "(stereo not shown) [Example 562]", "values": [{"measurement": "CK1α Ymin", "setting": "[1]", "value": "C (C = 0-10% remaining)"}, {"measurement": "DC50", "setting": "[1]", "value": "< 0.025", "unit": "µM"}, {"measurement": "DC50", "setting": "[2]", "value": "< 0.025", "unit": "µM"}, {"measurement": "GSPT1 Ymin", "setting": "[2]", "value": "F (F = >75-100% remaining)"}]}, {"smiles": "Cc1cc(-c2nc(-c3ccc4c(c3)CN(C3CCC(=O)NC3=O)C4=O)cn2C)ccc1F", "note": "(stereo not shown) [Example 563]", "values": [{"measurement": "CK1α Ymin", "setting": "[1]", "value": "C (C = 0-10% remaining)"}, {"measurement": "DC50", "setting": "[1]", "value": "< 0.025", "unit": "µM"}, {"measurement": "DC50", "setting": "[2]", "value": "≥ 0.025", "unit": "µM"}, {"measurement": "GSPT1 Ymin", "setting": "[2]", "value": "F (F = >75-100% remaining)"}]}, {"smiles": "Cc1ccc(-c2nc(-c3ccc4c(c3)CN(C3CCC(=O)NC3=O)C4=O)cn2C)cc1Cl", "note": "(stereo not shown) [Example 564]", "values": [{"measurement": "CK1α Ymin", "setting": "[1]", "value": "C (C = 0-10% remaining)"}, {"measurement": "DC50", "setting": "[1]", "value": "< 0.025", "unit": "µM"}, {"measurement": "DC50", "setting": "[2]", "value": "< 0.025", "unit": "µM"}, {"measurement": "GSPT1 Ymin", "setting": "[2]", "value": "F (F = >75-100% remaining)"}]}, {"smiles": "COc1ccc(-c2nc(-c3ccc4c(c3)CN(C3CCC(=O)NC3=O)C4=O)cn2C)cc1C", "note": "(stereo not shown) [Example 565]", "values": [{"measurement": "CK1α Ymin", "setting": "[1]", "value": "C (C = 0-10% remaining)"}, {"measurement": "DC50", "setting": "[1]", "value": "< 0.025", "unit": "µM"}, {"measurement": "DC50", "setting": "[2]", "value": "≥ 0.025", "unit": "µM"}, {"measurement": "GSPT1 Ymin", "setting": "[2]", "value": "F (F = >75-100% remaining)"}]}, {"smiles": "Cc1ccc(-c2nc(-c3ccc4c(c3)CN(C3CCC(=O)NC3=O)C4=O)cn2C)cc1C", "note": "(stereo not shown) [Example 566]", "values": [{"measurement": "CK1α Ymin", "setting": "[1]", "value": "C (C = 0-10% remaining)"}, {"measurement": "DC50", "setting": "[1]", "value": "< 0.025", "unit": "µM"}, {"measurement": "DC50", "setting": "[2]", "value": "≥ 0.025", "unit": "µM"}, {"measurement": "GSPT1 Ymin", "setting": "[2]", "value": "E (E = >25-75% remaining)"}]}, {"smiles": "Cc1ccc(-c2nc(-c3ccc4c(c3)CN(C3CCC(=O)NC3=O)C4=O)cn2C)cc1", "note": "(stereo not shown) [Example 568]", "values": [{"measurement": "CK1α Ymin", "setting": "[1]", "value": "C (C = 0-10% remaining)"}, {"measurement": "DC50", "setting": "[1]", "value": "< 0.025", "unit": "µM"}, {"measurement": "DC50", "setting": "[2]", "value": "< 0.025", "unit": "µM"}, {"measurement": "GSPT1 Ymin", "setting": "[2]", "value": "F (F = >75-100% remaining)"}]}, {"smiles": "Cn1cc(-c2ccc3c(c2)CN(C2CCC(=O)NC2=O)C3=O)nc1-c1ccc(OC(F)F)cc1", "note": "(stereo not shown) [Example 569]", "values": [{"measurement": "CK1α Ymin", "setting": "[1]", "value": "C (C = 0-10% remaining)"}, {"measurement": "DC50", "setting": "[1]", "value": "< 0.025", "unit": "µM"}, {"measurement": "DC50", "setting": "[2]", "value": "< 0.025", "unit": "µM"}, {"measurement": "GSPT1 Ymin", "setting": "[2]", "value": "F (F = >75-100% remaining)"}]}, {"smiles": "Cc1cccc(-c2nc(-c3ccc4c(c3)CN(C3CCC(=O)NC3=O)C4=O)cn2C)c1", "note": "(stereo not shown) [Example 570]", "values": [{"measurement": "CK1α Ymin", "setting": "[1]", "value": "C (C = 0-10% remaining)"}, {"measurement": "DC50", "setting": "[1]", "value": "< 0.025", "unit": "µM"}, {"measurement": "DC50", "setting": "[2]", "value": "≥ 0.025", "unit": "µM"}, {"measurement": "GSPT1 Ymin", "setting": "[2]", "value": "E (E = >25-75% remaining)"}]}, {"smiles": "Cc1ccccc1-c1nc(-c2ccc3c(c2)CN(C2CCC(=O)NC2=O)C3=O)cn1C", "note": "(stereo not shown) [Example 571]", "values": [{"measurement": "CK1α Ymin", "setting": "[1]", "value": "C (C = 0-10% remaining)"}, {"measurement": "DC50", "setting": "[1]", "value": "< 0.025", "unit": "µM"}, {"measurement": "DC50", "setting": "[2]", "value": "< 0.025", "unit": "µM"}, {"measurement": "GSPT1 Ymin", "setting": "[2]", "value": "F (F = >75-100% remaining)"}]}, {"smiles": "Cn1cc(-c2ccc3c(c2)CN(C2CCC(=O)NC2=O)C3=O)nc1-c1ccc(C#N)nc1", "note": "(stereo not shown) [Example 572]", "values": [{"measurement": "CK1α Ymin", "setting": "[1]", "value": "D (D = >10- 25% remaining)"}, {"measurement": "DC50", "setting": "[1]", "value": "< 0.025", "unit": "µM"}, {"measurement": "DC50", "setting": "[2]", "value": "< 0.025", "unit": "µM"}, {"measurement": "GSPT1 Ymin", "setting": "[2]", "value": "F (F = >75-100% remaining)"}]}, {"smiles": "Cc1c(N)cccc1-c1nc(-c2ccc3c(c2)CN(C2CCC(=O)NC2=O)C3=O)cn1C", "note": "(stereo not shown) [Example 573]", "values": [{"measurement": "CK1α Ymin", "setting": "[1]", "value": "C (C = 0-10% remaining)"}, {"measurement": "DC50", "setting": "[1]", "value": "< 0.025", "unit": "µM"}, {"measurement": "DC50", "setting": "[2]", "value": "< 0.025", "unit": "µM"}, {"measurement": "GSPT1 Ymin", "setting": "[2]", "value": "E (E = >25-75% remaining)"}]}, {"smiles": "Cc1cc(-c2nc(-c3ccc4c(c3)CN(C3CCC(=O)NC3=O)C4=O)cn2C)ccc1Cl", "note": "(stereo not shown) [Example 574]", "values": [{"measurement": "CK1α Ymin", "setting": "[1]", "value": "C (C = 0-10% remaining)"}, {"measurement": "DC50", "setting": "[1]", "value": "< 0.025", "unit": "µM"}, {"measurement": "DC50", "setting": "[2]", "value": "≥ 0.025", "unit": "µM"}, {"measurement": "GSPT1 Ymin", "setting": "[2]", "value": "E (E = >25-75% remaining)"}]}]}
